Assay results taken from PubChem BioAssay AID256 (DTP/NCI, 2004).
Values joined by “and” are separate entries in the source; they are usually repeats but may differ in a detail not shown here. Identical values can stand only once. Toxic doses and inconclusive results are not listed.

System: CD2F1 mice, L1210 leukemia ip, survival T/C
Experiment: NCI In Vivo Anticancer Drug Screen. Data for tumor model L1210 Leukemia (intraperitoneal) in CD2F1 (CDF1) mice
Conditions: higher = longer survival
In short: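 Compound-dosed mice with transplantable tumor versus matched vehicle controls; endpoint ratio T/C reported.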

[1] = endpoint: mean survival time, dose: 100.0 mg/kg/injection, schedule: Q01DX009 (ip), vehicle: saline with Tween-80
[2] = endpoint: mean survival time, dose: 200.0 mg/kg/injection, schedule: Q01DX009 (ip), vehicle: saline with Tween-80
[3] = endpoint: mean survival time, dose: 400.0 mg/kg/injection, schedule: Q01DX009 (ip), vehicle: saline with Tween-80
[4] = endpoint: mean survival time, dose: 100.0 mg/kg/injection, schedule: Q04DX003 (ip), vehicle: saline with Tween-80
[5] = endpoint: mean survival time, dose: 200.0 mg/kg/injection, schedule: Q04DX003 (ip), vehicle: saline with Tween-80
[6] = endpoint: mean survival time, dose: 400.0 mg/kg/injection, schedule: Q04DX003 (ip), vehicle: saline with Tween-80
[7] = endpoint: mean survival time, dose: 100.0 mg/kg/injection, schedule: Q01DX001 (ip), vehicle: Klucel (hydroxypropylcellulose) (HPC)
[8] = endpoint: mean survival time, dose: 200.0 mg/kg/injection, schedule: Q01DX001 (ip), vehicle: Klucel (hydroxypropylcellulose) (HPC)

In the case of S=C(S)NCCc1ccccn1, the T/C [1] is reported as 102 % of control, the T/C [2] is reported as 94 % of control and the T/C [3] is reported as 103 % of control.

With O=C(O)c1c(Cl)cc(Cl)c(-c2c(Cl)cc(Cl)c(C(=O)O)c2Cl)c1Cl the T/C [1] was 103 % of control, the T/C [4] was 92 % of control and the T/C [2] was 98 % of control. The T/C [5] was 98 % of control, the T/C [3] was 104 % of control and the T/C [6] was 100 % of control.

In the case of O=S(=O)(O)c1ccc2c(N=Nc3ccccc3[As](=O)(O)O)c(O)c(S(=O)(=O)O)cc2c1, the T/C [1] is reported as 96 % of control, the T/C [4] is reported as 104 % of control and the T/C [2] is reported as 100 % of control. The T/C [5] was 94 % of control and the T/C [6] was 98 % of control.

For O=C(O)CCc1ccccc1-c1ccccc1, the T/C (endpoint: mean survival time, dose: 50.0 mg/kg/injection, schedule: Q04DX002 (ip), vehicle: saline with Tween-80) was 105 % of control, the T/C (endpoint: mean survival time, dose: 100.0 mg/kg/injection, schedule: Q04DX002 (ip), vehicle: saline with Tween-80) was 96 % of control and 97 % of control and the T/C (endpoint: mean survival time, dose: 200.0 mg/kg/injection, schedule: Q04DX002 (ip), vehicle: saline with Tween-80) was 103 % of control and 105 % of control. For the same molecule, the T/C (endpoint: mean survival time, dose: 400.0 mg/kg/injection, schedule: Q04DX002 (ip), vehicle: saline with Tween-80) was 100 % of control.

In the case of Nc1cccc2ccc(O)cc12, the T/C [7] is reported as 96 % of control, the T/C [8] is reported as 86 % of control and the T/C (endpoint: mean survival time, dose: 400.0 mg/kg/injection, schedule: Q01DX001 (ip), vehicle: Klucel (hydroxypropylcellulose) (HPC)) is reported as 104 % of control.

In the case of CC1(C)OCC(C2OC(On3nnc4ccc(Cl)cc43)C3OC(C)(C)OC23)O1 (stereo unspecified), the T/C (endpoint: mean survival time, dose: 12.5 mg/kg/injection, schedule: Q01DX005 (ip), vehicle: distilled water + Tween-80) is reported as 98 % of control, the T/C (endpoint: mean survival time, dose: 25.0 mg/kg/injection, schedule: Q01DX005 (ip), vehicle: distilled water + Tween-80) is reported as 96 % of control and the T/C (endpoint: mean survival time, dose: 50.0 mg/kg/injection, schedule: Q01DX005 (ip), vehicle: distilled water + Tween-80) is reported as 105 % of control. For the same molecule, the T/C (endpoint: mean survival time, dose: 100.0 mg/kg/injection, schedule: Q01DX005 (ip), vehicle: distilled water + Tween-80) was 96 % of control and the T/C (endpoint: mean survival time, dose: 200.0 mg/kg/injection, schedule: Q01DX005 (ip), vehicle: distilled water + Tween-80) was 105 % of control.

For O=C1CSC(=S)N1/N=C/c1ccc(Cl)s1, the T/C (endpoint: mean survival time, dose: 75.0 mg/kg/injection, schedule: Q01DX001 (ip), vehicle: other) was 96 % of control.

For C[C@H](N)C(=O)N[C@@H]1[C@H]2C(=C(O)C[C@@H](O)[C@@H]2O)C(=O)O[C@@H]1C, the T/C (endpoint: mean survival time, dose: 100.0 mg/kg/injection, schedule: Q01DX007 (ip), vehicle: saline) was 113 % of control, the T/C (endpoint: mean survival time, dose: 100.0 mg/kg/injection, schedule: Q01DX009 (ip), vehicle: saline) was 118 % of control and the T/C (endpoint: mean survival time, dose: 100.0 mg/kg/injection, schedule: Q03DX003 (ip), vehicle: saline) was 107 % of control. For the same molecule, the T/C (endpoint: mean survival time, dose: 100.0 mg/kg/injection, schedule: Q04DX003 (ip), vehicle: saline) was 106 % of control, the T/C (endpoint: mean survival time, dose: 200.0 mg/kg/injection, schedule: Q01DX007 (ip), vehicle: saline) was 124 % of control and the T/C (endpoint: mean survival time, dose: 200.0 mg/kg/injection, schedule: Q01DX009 (ip), vehicle: saline) was 120 % of control. For the same molecule, the T/C (endpoint: mean survival time, dose: 200.0 mg/kg/injection, schedule: Q03DX003 (ip), vehicle: saline) was 109 % of control, the T/C (endpoint: mean survival time, dose: 200.0 mg/kg/injection, schedule: Q04DX003 (ip), vehicle: saline) was 106 % of control and the T/C (endpoint: mean survival time, dose: 400.0 mg/kg/injection, schedule: Q03DX003 (ip), vehicle: saline) was 115 % of control. The T/C (endpoint: mean survival time, dose: 400.0 mg/kg/injection, schedule: Q04DX003 (ip), vehicle: saline) was 112 % of control, the T/C (endpoint: median survival time, dose: 75.0 mg/kg/injection, schedule: Q01DX009 (ip), vehicle: saline) was 103 % of control and the T/C (endpoint: median survival time, dose: 150.0 mg/kg/injection, schedule: Q01DX009 (ip), vehicle: saline) was 109 % of control. For the same molecule, the T/C (endpoint: median survival time, dose: 300.0 mg/kg/injection, schedule: Q01DX009 (ip), vehicle: saline) was 119 % of control, the T/C (endpoint: median survival time, dose: 1200.0 mg/kg/injection, schedule: Q01DX009 (ip), vehicle: saline) was 150 % of control and 166 % of control and the T/C (endpoint: median survival time, dose: 2400.0 mg/kg/injection, schedule: Q01DX009 (ip), vehicle: saline) was 86 % of control.

In the case of NS(=O)(=O)c1cc2c(cc1Cl)NCNS2(=O)=O, the T/C [1] is reported as 98 % of control, the T/C [2] is reported as 98 % of control and the T/C [3] is reported as 96 % of control.

For NC(CCl)=NCC1C2CC3CC(C2)CC1C3 (stereo unspecified), the T/C (endpoint: mean survival time, dose: 6.25 mg/kg/injection, schedule: Q04DX002 (ip), vehicle: saline) was 96 % of control, the T/C (endpoint: mean survival time, dose: 12.5 mg/kg/injection, schedule: Q04DX002 (ip), vehicle: saline) was 93 % of control and the T/C (endpoint: mean survival time, dose: 25.0 mg/kg/injection, schedule: Q04DX002 (ip), vehicle: saline) was 90 % of control. For the same molecule, the T/C (endpoint: mean survival time, dose: 50.0 mg/kg/injection, schedule: Q04DX002 (ip), vehicle: saline) was 96 % of control, the T/C [7] was 107 % of control and the T/C [8] was 98 % of control.
